This assay addresses T1, TrkA (Homo sapiens, UniProt P04629).
T1 construct: purchased Invitrogen PV3144
The experiment in a line: TrkA kinase inhibition, HTRF assay. Format: biochemical. Particulars: LCK peptide substrate 125 nM, TrkA 2-10 nM pre-incubated with ATP 200 μM. The procedure: TrkA, TrkB, and TrkC enzymes were obtained from Invitrogen (as catalog numbers PV3144, PV3616, and PV3617, respectively). The ability of a compound to inhibit the enzymatic activity of the TrkA, TrkB, and TrkC enzymes was determined in separate assays. Enzyme activity was measured in an HTRF® (homogeneous time resolved fluorescence) assay, which detects enzymatic phosphorylation of a biotinylated synthetic peptide substrate (an LCK peptide analog, biotin-ahx-GAEEEIYAAFFA, from Genemed Synthesis). Phosphorylation is assessed by HTRF® in the presence of an anti-phosphotyrosine antibody conjugated to Eu^3+ cryptate (Cisbio) as donor fluorophore, and streptavidin conjugated to allophycocyanin (ProZyme) as acceptor fluorophore. The HTRF® signal was detected at two different wavelengths (620 nm and 665 nm) which were used to calculate the fluorescence ratio.
Each enzyme was titrated to a concentration optimized to ensure accurate measurement of the initial reaction rate. To allow the Trk enzymes to undergo activation and auto-phosphorylation, a 20 minute pre-incubation with ATP was carried out (at twice the final targeted enzyme and ATP concentration) prior to addition of test compound and the peptide substrate.
TrkA in vitro assays were performed by pre-incubating TrkA (2-10 nM) with ATP (200 μM) for 20 minutes at ambient temperature in 50 mM HEPES pH 7.4, 10 mM MgCl2, 2 mM MnCl2, 100 μM Na3VO4, 1 mM dithiothreitol, 0.01% BSA (bovine serum albumin). Then, to the activated Trk enzyme mixture was added the test compound in 2% dimethyl sulfoxide. After 10 minutes, the peptide substrate (125 nM) was added. After 1 hour, enzyme reactions were terminated by addition of equal reaction volumes of detection/stop reagent (containing 0.2 μg/mL anti-phosphotyrosine monoclonal antibody labeled with europium from Cisbio (catalog# PT66-K), and 4 μg/mL PhycoLink® Streptavidin-Allophycocyanin conjugate from ProZyme (catalog# PJ25S) in 60 mM EDTA in 40 mM HEPES pH 7.4, 480 mM KF, 0.01% Tween® 20 and 0.1% BSA bovine serum albumin) Reaction plates were stored at 4° C. overnight before reading the fluorescence ratio signal on a PerkinElmer EnVision™ fluorescence detector. Individual reaction wells were stopped at time points to obtain reaction rates. The test inhibitor compounds were assayed in duplicate, at half-log serial dilutions over a range of concentrations (e.g. starting at 50 μM or 5 μM as the high compound concentration). The percent Trk enzyme inhibition was calculated from the initial rates of the inhibited reactions relative to the uninhibited control. IC50 values were calculated by fitting the inhibition percent to the concentration of inhibitor [I] in the assay in equation 1 below, to solve for the IC50.
Inhibition %=100[I]/([I]+[IC50]) equation 1
A general note: Time-resolved FRET reads energy transfer from a long-lived donor to a nearby acceptor.

25 compounds from patent US20160376240A1, “6 Phenyl or 6 Pyridin 3 YL Indazole Derivatives and Methods of Use” (ABBVIE INC., priority 2014, published 2016) can be followed below.

By IC50 is commonly meant the midpoint of a concentration-inhibition curve.

T1 sequence (P04629 33-796): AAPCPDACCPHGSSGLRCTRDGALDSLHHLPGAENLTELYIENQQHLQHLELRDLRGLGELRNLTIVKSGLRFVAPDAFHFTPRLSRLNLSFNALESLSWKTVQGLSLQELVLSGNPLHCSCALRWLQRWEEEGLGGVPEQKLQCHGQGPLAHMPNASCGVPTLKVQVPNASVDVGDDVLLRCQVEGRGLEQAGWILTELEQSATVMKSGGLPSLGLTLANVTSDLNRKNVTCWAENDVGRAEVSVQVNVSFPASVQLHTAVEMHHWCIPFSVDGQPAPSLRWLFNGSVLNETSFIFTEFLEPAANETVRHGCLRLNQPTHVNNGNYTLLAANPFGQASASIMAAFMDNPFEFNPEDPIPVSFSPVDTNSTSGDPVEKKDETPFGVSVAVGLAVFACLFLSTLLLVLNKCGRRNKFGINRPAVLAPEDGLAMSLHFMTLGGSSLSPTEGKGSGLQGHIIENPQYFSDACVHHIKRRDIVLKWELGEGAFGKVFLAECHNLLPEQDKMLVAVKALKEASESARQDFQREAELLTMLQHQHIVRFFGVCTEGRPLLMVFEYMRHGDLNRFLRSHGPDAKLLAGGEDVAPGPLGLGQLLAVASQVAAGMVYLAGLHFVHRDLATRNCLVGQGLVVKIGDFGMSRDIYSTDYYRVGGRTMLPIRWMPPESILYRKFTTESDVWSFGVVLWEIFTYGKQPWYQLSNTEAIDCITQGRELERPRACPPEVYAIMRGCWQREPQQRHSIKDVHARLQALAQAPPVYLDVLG

In the case of “4-{3-amino-4-[(1,1,1-trifluoropropan-2-yl)oxy]-1H-indazol-6-yl}-2-(4-cyclopentylpiperazin-1-yl)benzamide [Example 102]”, the IC50 was determined as 0.0192 µM.

In turn, `CC(=O)N1CCN(c2cc(-c3cc(OC4CCOCC4)c4c(N)n[nH]c4c3)ccc2C(N)=O)CC1` [Example 4, 2-(4-acetylpiperazin-1-yl)-4-[3-amino-4-(tetrahydro-2H-pyran-4-yloxy)-1H-indazol-6-yl]benzamide] registered an IC50 of 0.147 µM. To `NC(=O)c1ccc(-c2cc(OC3CCOCC3)c3c(N)n[nH]c3c2)cc1N1CCN(CCN2CCOCC2)CC1` [Example 5, 4-[3-amino-4-(tetrahydro-2H-pyran-4-yloxy)-1H-indazol-6-yl]-2-{4-[2-(morpholin-4-yl)ethyl]piperazin-1-yl}benzamide] belongs 0.037 µM; to `NC(=O)c1ccc(-c2cc(OC3CCOCC3)c3c(N)n[nH]c3c2)cc1N1CCN(CCCO)CC1` [Example 7, 4-[3-amino-4-(tetrahydro-2H-pyran-4-yloxy)-1H-indazol-6-yl]-2-[4-(3-hydroxypropyl)piperazin-1-yl]benzamide], 0.706 µM; to `NC(=O)c1ccc(-c2cc(OC3CCOCC3)c3c(N)n[nH]c3c2)cc1N1CCN(c2cncc(Cl)c2)CC1` [Example 8, 4-[3-amino-4-(tetrahydro-2H-pyran-4-yloxy)-1H-indazol-6-yl]-2-[4-(5-chloropyridin-3-yl)piperazin-1-yl]benzamide], 0.00442 µM. To `CN1CCC(N2CCN(c3cc(-c4cc(OC5CCOCC5)c5c(N)n[nH]c5c4)ccc3C(N)=O)CC2)CC1` [Example 9, 4-[3-amino-4-(tetrahydro-2H-pyran-4-yloxy)-1H-indazol-6-yl]-2-[4-(1-methylpiperidin-4-yl)piperazin-1-yl]benzamide] belongs 3.46 µM.

Compound `NC(=O)c1ccc(-c2cc(OC3CCOCC3)c3c(N)n[nH]c3c2)cc1N1CCN(CCc2ccccn2)CC1` [Example 10, 4-[3-amino-4-(tetrahydro-2H-pyran-4-yloxy)-1H-indazol-6-yl]-2-{4-[2-(pyridin-2-yl)ethyl]piperazin-1-yl}benzamide] yielded an IC50 of 0.136 µM. To `NC(=O)c1ccc(-c2cc(OC3CCOCC3)c3c(N)n[nH]c3c2)cc1N1CCN(CCOCCO)CC1` [Example 11, 4-[3-amino-4-(tetrahydro-2H-pyran-4-yloxy)-1H-indazol-6-yl]-2-{4-[2-(2-hydroxyethoxy)ethyl]piperazin-1-yl}benzamide] belongs 0.208 µM; to `NC(=O)c1ccc(-c2cc(OC3CCOCC3)c3c(N)n[nH]c3c2)cc1N1CCN(c2cccc(Cl)c2)CC1` [Example 12, 4-[3-amino-4-(tetrahydro-2H-pyran-4-yloxy)-1H-indazol-6-yl]-2-[4-(3-chlorophenyl)piperazin-1-yl]benzamide], 0.0029 µM.

Consider `CC(=O)c1ccc(-c2cc(OC3CCOCC3)c3c(N)n[nH]c3c2)cc1N1CCN(c2ccccc2)CC1` [Example 13, 1-{4-[3-amino-4-(tetrahydro-2H-pyran-4-yloxy)-1H-indazol-6-yl]-2-(4-phenylpiperazin-1-yl)phenyl}ethanone], for which the IC50 was found to be 0.0629 µM. `CC(=O)c1ccc(-c2cc(OC3CCOCC3)c3c(N)n[nH]c3c2)cc1N1CCN(C2CC2)CC1` [Example 14, 1-{4-[3-amino-4-(tetrahydro-2H-pyran-4-yloxy)-1H-indazol-6-yl]-2-(4-cyclopropylpiperazin-1-yl)phenyl}ethanone]: the IC50 was 0.11 µM. To `CC(=O)c1ccc(-c2cc(OC3CCOCC3)c3c(N)n[nH]c3c2)cc1N1CCN(c2ncccn2)CC1` [Example 15, 1-{4-[3-amino-4-(tetrahydro-2H-pyran-4-yloxy)-1H-indazol-6-yl]-2-[4-(pyrimidin-2-yl)piperazin-1-yl]phenyl}ethanone] belongs 0.00959 µM; to `CC(=O)c1ccc(-c2cc(OC3CCOCC3)c3c(N)n[nH]c3c2)cc1N1CCN(c2cccnc2)CC1` [Example 16, 1-{4-[3-amino-4-(tetrahydro-2H-pyran-4-yloxy)-1H-indazol-6-yl]-2-[4-(pyridin-3-yl)piperazin-1-yl]phenyl}ethanone], 0.0296 µM.

Compound `CC(=O)c1ccc(-c2cc(OC3CCOCC3)c3c(N)n[nH]c3c2)cc1N1CCN(c2ccc(F)cc2)CC1` [Example 17, 1-{4-[3-amino-4-(tetrahydro-2H-pyran-4-yloxy)-1H-indazol-6-yl]-2-[4-(4-fluorophenyl)piperazin-1-yl]phenyl}ethanone] came in with an IC50 of 0.0134 µM. Then `CC(=O)c1ccc(-c2cc(OC3CCOCC3)c3c(N)n[nH]c3c2)cc1N1CCN(CCC(C)(C)C)CC1` [Example 18, 1-{4-[3-amino-4-(tetrahydro-2H-pyran-4-yloxy)-1H-indazol-6-yl]-2-[4-(3,3-dimethylbutyl)piperazin-1-yl]phenyl}ethanone], with 0.0364 µM; and `CC(=O)c1ccc(-c2cc(OC3CCOCC3)c3c(N)n[nH]c3c2)cc1N1CCN(C2CCCCC2)CC1` [Example 19, 1-{4-[3-amino-4-(tetrahydro-2H-pyran-4-yloxy)-1H-indazol-6-yl]-2-(4-cyclohexylpiperazin-1-yl)phenyl}ethanone], with 0.0381 µM. To `CC(=O)c1ccc(-c2cc(OC3CCOCC3)c3c(N)n[nH]c3c2)cc1N1CCN(C(=O)C2CC2)CC1` [Example 20, 1-{4-[3-amino-4-(tetrahydro-2H-pyran-4-yloxy)-1H-indazol-6-yl]-2-[4-(cyclopropylcarbonyl)piperazin-1-yl]phenyl}ethanone] belongs 0.101 µM. As to `CC(=O)c1ccc(-c2cc(OC3CCOCC3)c3c(N)n[nH]c3c2)cc1N1CCN(c2nccs2)CC1` [Example 21, 1-{4-[3-amino-4-(tetrahydro-2H-pyran-4-yloxy)-1H-indazol-6-yl]-2-[4-(1,3-thiazol-2-yl)piperazin-1-yl]phenyl}ethanone], the IC50 came to 0.0333 µM. The compound `CC(O)c1ccc(-c2cc(OC3CCOCC3)c3c(N)n[nH]c3c2)cc1N1CCN(c2cccnc2)CC1` (stereo not shown) [Example 22, 1-{4-[3-amino-4-(tetrahydro-2H-pyran-4-yloxy)-1H-indazol-6-yl]-2-[4-(pyridin-3-yl)piperazin-1-yl]phenyl}ethanol] returned an IC50 of 0.254 µM. As to `Nc1n[nH]c2cc(-c3ccc(C(=O)NC4CC4)c(N4CCN(c5cccnc5)CC4)c3)cc(OC3CCOCC3)c12` [Example 24, 4-[3-amino-4-(tetrahydro-2H-pyran-4-yloxy)-1H-indazol-6-yl]-N-cyclopropyl-2-[4-(pyridin-3-yl)piperazin-1-yl]benzamide], the IC50 came out at 0.0204 µM.

The compound `CC(C)(C)C(=O)N1CCN(c2cc(-c3cc(OC4CCOCC4)c4c(N)n[nH]c4c3)ccc2C(=O)NC2CC2)CC1` [Example 25, 4-[3-amino-4-(tetrahydro-2H-pyran-4-yloxy)-1H-indazol-6-yl]-N-cyclopropyl-2-[4-(2,2-dimethylpropanoyl)piperazin-1-yl]benzamide] showed an IC50 of 0.188 µM. Then `CC(Oc1cc(-c2ccc(C(=O)NC3CC3)c(N3CCN(c4ccccc4)CC3)c2)cc2[nH]nc(N)c12)C(F)(F)F` (stereo not shown) [Example 26, 4-{3-amino-4-[(1,1,1-trifluoropropan-2-yl)oxy]-1H-indazol-6-yl}-N-cyclopropyl-2-(4-phenylpiperazin-1-yl)benzamide], with 0.0581 µM. Then `CC(Oc1cc(-c2ccc(C(=O)NC3CC3)c(N3CCN(C4CC4)CC3)c2)cc2[nH]nc(N)c12)C(F)(F)F` (stereo not shown) [Example 27, 4-{3-amino-4-[(1,1,1-trifluoropropan-2-yl)oxy]-1H-indazol-6-yl}-N-cyclopropyl-2-(4-cyclopropylpiperazin-1-yl)benzamide], with 0.251 µM; and `CC(Oc1cc(-c2ccc(C(=O)NC3CC3)c(N3CCN(c4cccnc4)CC3)c2)cc2[nH]nc(N)c12)C(F)(F)F` (stereo not shown) [Example 28, 4-{3-amino-4-[(1,1,1-trifluoropropan-2-yl)oxy]-1H-indazol-6-yl}-N-cyclopropyl-2-[4-(pyridin-3-yl)piperazin-1-yl]benzamide], with 0.041 µM; and `CNC(=O)c1ccc(-c2cc(OC3CCOCC3)c3c(N)n[nH]c3c2)cc1N1CCN(c2cccnc2)CC1` [Example 31, 4-[3-amino-4-(tetrahydro-2H-pyran-4-yloxy)-1H-indazol-6-yl]-N-methyl-2-[4-(pyridin-3-yl)piperazin-1-yl]benzamide], with 0.0421 µM.
